Data from patent US11529350B2, “Tyrosine kinase non-receptor 1 (TNK1) inhibitors and uses thereof” (Sumitomo Pharma Oncology, Inc., priority 2019, dated 2022).

Tests used:
[1] = test system: K562 cells; experiment: In-vitro cell viability assay (CellTiter-Glo), K562; assay type: cell-based; conditions: Homo sapiens
Protocol: Tnk1 is known to drive proliferation and survival of Hodgkin's lymphoma (HL) cells, such as K652 and L540 cell lines (Gu et al., Identification of activated Tnk1 kinase in Hodgkin's lymphoma, Leukemia 24: 861-65 ((2010)). Downregulation of Tnk1 inhibits cell growth and proliferation, and increases apoptosis. To study the individual test compounds in the context of HL cells, CellTiter-Glo® assays (Promega, Madison, Wis.) were performed according to the manufacturer's instructions. The CellTiter-Glo® assay system uses a thermostable luciferase to generate a stable “glow-type” luminescent signal while simultaneously inhibiting endogenous enzymes released during cell lysis (e.g., ATPases). As such, the assay provides a sensitive and stable luminescent output.
Reagent Preparation • 1. The CellTiter-Glo® Buffer was thawed and equilibrated to room temperature prior to use. • 2. The lyophilized CellTiter-Glo® Substrate was equilibrated to room temperature prior to use. • 3. An appropriate volume of CellTiter-Glo® Buffer was transferred into the amber bottle containing CellTiter-Glo® Substrate according the manufacturer's recommendation. The reconstituted lyophilized enzyme/substrate mixture formed the CellTiter-Glo® Reagent. • 4. The CellTiter-Glo® Reagent was mixed by gently vortexing, swirling or inverting the contents to obtain a homogeneous solution.
Protocol for the Cell Viability Assay • 1. A titration of the K652 or L540 cells was performed to determine the optimal number and ensure that the CellTiter-Glo® Assay was performed within the linear range. • 2. Opaque-walled multiwell plates (compatible with the luminometer) were prepared with K652 or L540 cells in culture medium, 100 μl per well for 96-well plates or 25 μl per well for 384-well plates. • 3. Control wells containing medium without cells were prepared to obtain a value for background luminescence. • 4. Test compound was added to experimental wells, and incubated according to culture protocol. • 5. The plate and its contents were equilibrated at room temperature for approximately 30 minutes.
Protocol for Generating an ATP Standard Curve • 1. 1 μM ATP was prepared in culture medium (100 μl of 1 μM ATP solution contains 10^−10 moles ATP). • 2. Serial tenfold dilutions of ATP in culture medium (1 μM to 10 nM; 100 μl contains 10^−10 to 10^−12 moles of ATP) were performed. • 3. A multiwell plate with varying concentrations of ATP standard in 100 μl medium (25 μl for a 384-well plate) was prepared. • 4. A volume of CellTiter-Glo® Reagent equal to the volume of ATP standard present in each well was added. • 5. Contents were mixed for 2 minutes on an orbital shaker. • 6. The plate was allowed to incubate at room temperature for 10 minutes to stabilize the luminescent signal. • 7. Luminescence was recorded.

[2] = test system: TNK1 and STAT5 phosphorylation in L540 tumor tissue; experiment: In vivo single dose PD study, L540 xenograft, Western blot; parameters: species or system mouse; conditions: L540 tumor samples, 50 mg/kg
Protocol: The objective of this study was to assess in vivo pharmacodynamic activity of Example No. 13 in a subcutaneous xenograft model of Hodgkin's lymphoma in female NOD SCID mice, aged 6-8 weeks. There were 4 groups (and a total of 84 mice): Example No. 13 at 50 mg/kg, 25 mg/kg, or 10 mg/kg (n=27 mice for each dose), and vehicle (n=3 mice). When the average tumor volume reached 300 mm^3, animals were randomized and dosed once p.o. at a 10 mL/kg dose volume. Blood and tumors were collected at nine different time points.
Example No. 13 was formulated in Tween 80 (0.2 mL), ethanol (1 mL), PEG400 (3 mL), and water (5.8 mL).
In this study, protein expression was analyzed by Western blotting method. Tissue samples were acquired as part of a single dose PK/PD study. Equal amounts of tumor were placed into a bead tube, lysis buffer (RIPA buffer (Sigma No. 0278), Halt CocktaiL (ThermoFisher No. 78440), EDTA (ThermoFisher No. 1861274), PhosSTOP (Sigma No. 04906845001), cOmplete (Sigma No. 11697498001) and Inhibitor Cocktail 3 (Sigma No. P0044-1ML)) was added, and samples were homogenized using bead homogenizer (2×20 s at 4.5 m/s (Fisherbrand Bead Mill 24 Homogenizer, Fisher Scientific)). […]
Protein concentration was determined using BCA kit (Invitrogen No. 23225). Equal amounts of protein were pooled from each treatment group, and concentration was measured again in the pooled samples. […]

[3] = test system: pSTAT5 in L540 xenograft tumors; experiment: pSTAT5 assay in L540 xenograft tumors (ELISA); assay type: in vivo, mouse; conditions: 10 mg/kg and 25 mg/kg treated arms
Protocol: Effects of test compounds on phosphorylation of signal transducer and activator of transcription 5 (STAT5) were determined in L540 xenograft tumors.
Methods: Each treatment group included 10 NOD SCID mice. Each mouse was injected with 1×10^7 L540 cells (86% viable at the time of injection), and treated with a single dose of test compound (10 mg/kg or 25 mg/kg) 10 days post L540 cell injection. Tumors were collected 24 hours post treatment, snap frozen, and kept at −80° C. for 24 hours post-harvest. Phosphorylated STAT5 (pSTAT5) levels were measured in the lysates using the STAT5 AB pY694/699 ELISA Kit (Abcam, Cambridge, UK, ab176656). The standard Abcam ELISA protocol was followed, except for 10× more protein than what Abcam recommends was used.

| SMILES | IC50 [1] [µM] | earliest time at which inhibition of STAT5 phosphorylation was observed after dosing [2] [min] | dose dependence of p-STAT5 decrease [3] |
| --- | --- | --- | --- |
| COc1cc(N2CCN(C)CC2)c(Cl)cc1Nc1ncc(Cl)c(Nc2cccnc2N2CCCC2=O)n1 [Example No. 13, 1-(3-((5-chloro-2-((5-chloro-2-methoxy-4-(4-methylpiperazin-1-yl)phenyl)amino)pyrimidin-4-yl)amino)pyridin-2-yl)pyrrolidin-2-one] | 1.5 to 6 | 15 to 30 |  |
| CN1CCN(c2c(Cl)cc(Nc3ncc(Cl)c(Nc4cccnc4N4CCCC4=O)n3)c3ccccc23)CC1 [Example No. 18, 1-(3-((5-chloro-2-((3-chloro-4-(4-methylpiperazin-1-yl)naphthalen-1-yl)amino)pyrimidin-4-yl)amino)pyridin-2-yl)pyrrolidin-2-one] | ≥ 6 |  |  |
| COc1cc(N2CCN(C)CC2)c(Cl)cc1Nc1ncc(Cl)c(Nc2cccnc2N2CCNC2=O)n1 [Example No. 21, 1-(3-((5-chloro-2-((5-chloro-2-methoxy-4-(4-methylpiperazin-1-yl)phenyl)amino)pyrimidin-4-yl)amino)pyridin-2-yl)imidazolidin-2-one] | ≥ 6 |  |  |
| CN1CCN(c2ccc(Nc3ncc(Cl)c(Nc4cccnc4N(C)C)n3)cc2)CC1 [compound 5, 5-chloro-N^4-(2-(dimethylamino)pyridin-3-yl)-N^2-(4-(4-methylpiperazin-1-yl)phenyl)pyrimidine-2,4-diamine] | 1.5 to 6 |  |  |
| COc1cc(N2CCN(C)CC2)c(C)cc1Nc1ncc(Cl)c(Nc2cccnc2N2CCNC2=O)n1 [compound 9, 1-(3-((5-chloro-2-((2-methoxy-5-methyl-4-(4-methylpiperazin-1-yl)phenyl)amino)pyrimidin-4-yl)amino)pyridin-2-yl)imidazolidin-2-one] | ≥ 6 |  | showed some dose dependence |
| COc1cc(N2CCN(C)CC2)c(C)cc1Nc1ncc(Br)c(Nc2cccnc2N(C)C)n1 [compound 10, 5-bromo-N^4-(2-(dimethylamino)pyridin-3-yl)-N^2-(2-methoxy-5-methyl-4-(4-methylpiperazin-1-yl)phenyl)pyrimidine-2,4-diamine] | ≥ 6 |  | showed some dose dependence |

The next lines start with results.

| IC50 [1] [µM] | SMILES | earliest time at which inhibition of STAT5 phosphorylation was observed after dosing [2] [min] | dose dependence of p-STAT5 decrease [3] |
| --- | --- | --- | --- |
| < 0.5 | CN1CCN(c2ccc(Nc3ncc(Cl)c(Nc4cccnc4N4CCCC4=O)n3)cc2)CC1 [compound 1, 1-(3-((5-chloro-2-((4-(4-methylpiperazin-1-yl)phenyl)amino)pyrimidin-4-yl)amino)pyridin-2-yl)pyrrolidin-2-one] |  |  |
| 1.5 to 6 | COc1cc(N2CCN(C)CC2)ccc1Nc1ncc(Cl)c(Nc2cccnc2N2CCCC2=O)n1 [compound 2, 1-(3-((5-chloro-2-((2-methoxy-4-(4-methylpiperazin-1-yl)phenyl)amino)pyrimidin-4-yl)amino)pyridin-2-yl)pyrrolidin-2-one] |  |  |
| 1.5 to 6 | CC(C)Oc1cc(N2CCN(C)CC2)ccc1Nc1ncc(Cl)c(Nc2cccnc2N(C)C)n1 [compound 4, 5-chloro-N^4-(2-(dimethylamino)pyridin-3-yl)-N^2-(2-isopropoxy-4-(4-methylpiperazin-1-yl)phenyl)pyrimidine-2,4-diamine] |  |  |
